Test results as given in patent publication US10822431B2, “Fucoidan preparation, zinc-bound fucoidan and use thereof” (South Product Ltd., priority 2015, dated 2020).

System: Hep G2 cells
Assay: Cytotoxicity test using Hep G2 cells (MTT assay)
Format: cell-based
Conditions: up to 500 μg/ml; zinc only as a comparison
Experimental: Cytotoxicity Test Using Hep G2 Cells:
[…] P. (2000). “Cytotoxicity and Viability Assays”. In Masters, J. R. W. Animal Cell Culture: A Practical Approach, 3rd) using Hep G2 cells were conducted on these preparations.

In the case of `[Zn]` [zinc], the “Cytotoxicity of Hep G2 cells” value is reported as “no cytotoxicity of Hep G2 cells was confirmed”.
